Experimental data reported in US12344646B2, “Antibody-TNF α fusion protein and its preparation and applications” (priority 2018, dated 2025).
Starred links: 1 amine or outer side, 2 acyl side, 3 side chain; linkers in the order of their positions; H or OH if unused. Positions of bridges follow the written chain, without caps; N, C: chain ends. Non-standard residues stand in square brackets, D forms with d. Residues, ends and D or L forms follow the SMILES beside them. Chains are numbered I, II in the order given. Actinocin(9to1) = Cc1c2oc3c(C)ccc(C(=O)[*:1])c3nc-2c(C(=O)[*:2])c(N)c1=O; NMeV = CN[C@H](C(=O)O)C(C)C; Sar = CNCC(=O)O

What was measured:
SKOV-3 cells = assay: Synergistic apoptosis with chemotherapeutic, SKOV-3; format: cell-based, human; conditions: 15 nM actinomycin D alone
Protocol: (§1) FIG. 9A: Her-2 positive human tumor cells (NCI-N87, SKBR-3 and SKOV-3) were cultured in the presence of the fusion protein, actinomycin D or both for 1 day; and cell viability was detected using a CCK-8 kit.
(§2) In the following, the Her-2 positive tumor cells were all obtained from the Cell Bank of the Chinese Academy of Sciences. […] Cell viability was detected by MTT assay.

NCI-N87 cells = assay: Synergistic apoptosis with chemotherapeutic, NCI-N87; format: cell-based, human; parameters: effect on viability of NCI-N87 cells: dose or concentration left out as unconfirmed
Description: FIG. […]
as §2

SKBR-3 cells = assay: Synergistic apoptosis with chemotherapeutic, SKBR-3; format: cell-based, human; conditions: 15 nM actinomycin D alone
Protocol: as §1, §2

BT-474 cells = assay: Synergistic apoptosis with chemotherapeutic, BT-474; format: cell-based, human; conditions: 33 μM or 11 μM doxorubicin alone
[1] = test system: Her-2 positive human gastric cancer cells NCI-N87; assay: Cytotoxicity of Her-2 antibody-TNFα fusion protein on NCI-N87 cells; format: cell-based; conditions: at concentrations corresponding to the fusion protein below 20 ng/ml
Protocol: FIG. 7A: the NCI-N87 cells were incubated with the antibody-TNFα fusion protein at different concentrations for 1 day; and cell survival was detected using a CCK-8 kit.
The day before experiment, the cells ([…]) in growth medium (150 μl) were added onto a 96-well plate. […] Cell viability was detected using MTT assay and cell viability using CCK-8.

With `Cc1c2oc3c(C)ccc(C(=O)N[C@@H]4C(=O)N[C@H](C(C)C)C(=O)N5CCC[C@H]5C(=O)N(C)CC(=O)N(C)[C@@H](C(C)C)C(=O)O[C@@H]4C)c3nc-2c(C(=O)N[C@@H]2C(=O)N[C@H](C(C)C)C(=O)N3CCC[C@H]3C(=O)N(C)CC(=O)N(C)[C@@H](C(C)C)C(=O)O[C@@H]2C)c(N)c1=O` [actinomycin D] (I: T[dV]P[Sar][NMeV] / II: T[dV]P[Sar][NMeV]; ester I:1-I:C, II:1-II:C; linker I:N-II:N via Actinocin(9to1)) the “impact on survival of SKOV-3 cells” value (SKOV-3 cells) was “Neither 100 ng/ml of Trastuzumab-TNFα fusion protein nor 15 nM of actinomycin D, when used alone, had an impact on survival of SKOV-3 cells”, the “apoptosis in NCI-N87 cells” value (NCI-N87 cells; 15 nM actinomycin D alone) was 25% and the “apoptosis in SKBR-3 cells” value (SKBR-3 cells) was 70%.
With `COc1cccc2c1C(=O)c1c(O)c3c(c(O)c1C2=O)C[C@@](O)(C(=O)CO)C[C@@H]3O[C@H]1C[C@H](N)[C@H](O)[C@H](C)O1` [doxorubicin] the “effect on viability of NCI-N87 cells” value (NCI-N87 cells) was “little effect on viability” and the “effect on viability of BT-474 cells” value (BT-474 cells) was “little effect on viability”.
With TNFα the “apoptosis in NCI-N87 cells” value [1] was “induced no or little apoptosis”.
